Data reported in US20220235029A1, “CRYSTAL FORM OF C-MET/AXL INHIBITOR” (MEDSHINE DISCOVERY INC., priority 2019, published 2022).

Assays:
[1] = tested on: MKN45 gastric cancer cell line; assay: Cell proliferation inhibition experiment (CellTiter-Glo); type: cell-based
Description: Reagents and Consumables:
The cell plates were incubated in a carbon dioxide incubator for 3 days.

[2] = Study on the hygroscopicity (DVS detection); type: physicochemical; settings: 25° C./80% RH
Description: Dynamic Vapor Sorption (DVS) Instrument in the Present Disclosure
Instrument model: DVS Advantage-1 (SMS)
Detection condition: about 10-15 mg of the sample was used for DVS detection.
Equilibrium: dm/dt=0.01%/min: (time: 10 min, longest: 180 min)
RH (%) gradient for testing: 10%
RH (%) gradient range for testing: 0%-90%-0%
The hygroscopicity was evaluated using the judgment criterias in the following Table 6: […]

[3] = tested on: human Hs746t gastric cancer cell xenograft tumor model; assay: In vivo pharmacodynamic study, Hs746t gastric cancer cell xenograft tumor model; design: species or system BALB/c nude mice; settings: for Tumor volume (mm^3) (20th day): average value ± SEM, Hs746t xenograft in BALB/c nude mice; for T/C (%) / TGI (%): calculated based on the tumor volume on the 21st day after administration
Description: Human gastric cancer HS 746T cells were cultured in a single layer in vitro. The culturing condition was DMEM medium supplemented with 10% fetal bovine serum, 100 U/mL penicillin and […] in 37° C., 5% CO2 incubator. Digestion and passage treatment with trypsin-EDTA was carried out twice a week. When the cell saturation was 80%-90% and the number reached the required level, the cells were collected, counted and seeded.
BALB/c nude mice, male. 6-8 weeks old, weighting 18-22 g.
0.2 mL (2×10^6, cells:Matrigel=1:1) HS 746T cells were inoculated subcutaneously on the right back of each mouse. The drug was administered in groups when the average tumor volume reached approximately 100-150 mm^3.
Experimental index: The experimental index was whether the tumor growth was inhibited, delayed or cured. The diameters of the tumor were measured twice a week using a vernier caliper. The formula for calculating the tumor volume is V=0.5a×b^2, a and b represent the long and short diameters of the tumor respectively. The antitumor effect (TGI) of the compound was evaluated by T-C (days) and T/C (%).

SMILES	inhibitory activity on MKN45 cell (in words) [1]	Classification of hygroscopicity [2]	Hygroscopic weight gain at 25/80% RH [2] [%]	Tumor volume (mm^3) (20th day) [3]	T/C (%) [3] [%]	TGI (%) [3] [%]	tumor inhibitory effect (in words) ([3]; Hs746t gastric cancer cell xenograft tumor model)
CN(C)C(=O)Nc1cc(Oc2ccc(NC(=O)c3cn(CC4CC4)c(=O)n(-c4ccc(F)cc4)c3=O)cc2F)ccn1	good inhibitory activity	slightly hygroscopic	0.2801				
CN(C)C(=O)Nc1cc(Oc2ccc(NC(=O)c3cn(CC4CC4)c(=O)n(-c4ccc(F)cc4)c3=O)cc2F)ccn1.Cc1ccc(S(=O)(=O)O)cc1		slightly hygroscopic	0.999				
CCOc1ccn(-c2ccc(F)cc2)c(=O)c1C(=O)Nc1ccc(Oc2ccnc(N)c2Cl)c(F)c1 [BMS777607]				1872 ± 355	27.61	73.58	
CN(C)C(=O)Nc1cc(Oc2ccc(NC(=O)c3cn(CC4CC4)c(=O)n(-c4ccc(F)cc4)c3=O)cc2F)ccn1 [Compound represented by formula (I)]				4 ± 2	104.82	0.15	better tumor inhibitory effect than BMS777607 and LY2801653
Cc1ccc(C(=O)Nc2ccc(Oc3cc4cnn(C)c4cc3-c3cn[nH]c3)c(F)c2)c(=O)n1-c1ccc(F)cc1 [LY2801653]				88 ± 13	101.62	3.45	
